From PMC9457810, “Synthesis, Structure and Antileishmanial Evaluation of Endoperoxide–Pyrazole Hybrids” (Molecules, 2022)
Structures can show the parent of a compound that is named as a salt. Each block holds one compound with its values, some of them ahead of it.

Legend:
[1] = test system: L. major; parameters: method as in PMID 30215271; conditions: given in Figure 1A; cited from earlier work
[2] = test system: L. infantum; parameters: method as in PMID 26014947; conditions: given in Figure 1A; cited from earlier work
[3] = test system: L. donovani; parameters: method as in PMID 31979089; conditions: given in Figure 1A; cited from earlier work
[4] = Solubility in culture media (observation); assay type: physicochemical
From the text: Calculated intrinsic aqueous solubility (ClogS) values show similar values between trioxolanes (1.20–1.38) and tetraoxanes (1.18–1.21). However, the poor solubility of dispiro 4′’-substituted tetraoxanes may be associated to their structural symmetry. A decrease in molecular symmetry has been correlated to better physicochemical properties, such as absorption and solubility, resulting in enhanced systemic exposure to a drug. So it is anticipated that 3′’-substituted analogues could overcome this solubility issue. Therefore, future optimization to 3”-substituted analogues should be considered. Likewise, conversion of the compounds into water-soluble salts, as well as encapsulation of the endoperoxide structures in delivery systems such as liposomes, could represent alternative strategies to solve the solubility issue.

[5] = test system: L. tropica promastigotes; test: Leishmania promastigotes in vitro susceptibility (MTT), L. tropica; assay type: cell-based; conditions: Leishmania tropica, 48 h, at least three independent assays, read-out: Promastigotes Susceptibility IC50 ± SEM, L. tropica
[6] = test system: THP-1 cell line; test: In vitro cytotoxicity assessment in THP-1 cell line (MTT); assay type: cell-based, human; conditions: THP-1 cells, 48 h, MTT; at least three independent assays; read-out: Cytotoxicity CC50 ± SEM
Experimental: (§1) THP-1 (ATCC® TIB-202TM) human acute monocytic leukemic cell line was obtained from DSMZ, Germany and cultured in RPMI 1640 (Sigma, Darmstadt, Germany) supplemented with 10% (v/v) FBS, 1% (v/v) penicillin-streptomycin (Sigma), and L-glutamine 200 mM (Sigma) at 37 °C, 5% CO2.
(§2) THP-1 cell line was used to calculate the endoperoxide–pyrazole hybrids’ half-maximal cytotoxic concentration (CC50). THP-1 was plated at a final density of 5 × 10^5 cells/mL, in 96-well flat bottom culture plates (VWR), using six different concentrations of the compounds (OZ1, OZ2, T1, T2 and PIR: 800, 400, 200, 100, 50, 25 µM) and amphotericin B (10, 5, 2.5, 1.25, 0.625, 0.313 µM). A blank (RPMI medium alone) and an untreated control (parasites with RPMI medium plus 1% DMSO as vehicle solution) were also included. All the compounds were plated out in quadruplicate and incubated for 48 h at 37 °C ± 1 °C, 5% CO2.
(§3) Following the incubation period, 20 µL per well of MTT was added as described in Section 3.5.2. After absorbance readings, the CC50 values of each compound were determined with GraphPad Prism V 9.0 (Dotmatics, San Diego, CA, USA) as previously described. At least three independent assays were performed.

[7] = test system: L. infantum promastigotes; test: Leishmania promastigotes in vitro susceptibility (MTT), L. infantum; assay type: cell-based; conditions: Leishmania infantum, 48 h, at least three independent assays, read-out: Promastigotes Susceptibility IC50 ± SEM, L. infantum
[8] = In vitro cytotoxicity assessment in THP-1 cell line (MTT); assay type: cell-based, human; conditions: human, THP-1 cells, 48 h, MTT; at least three independent assays; read-out: Cytotoxicity CC50 ± SEM
Experimental: as §1, §2, §3

melting point: 156 °C (dec.)
SMILES: Nc1ccnn1C(=O)C1CCC2(CC1)OOC1(OO2)C2CC3CC(C2)CC1C3 (stereo not shown) (as salt: tosylate) [T1•TsOH, (5-Amino-1H-pyrazol-1-yl) (dispiro[cyclohexane-1,3′-[1,2,4,5]tetraoxane-6′,2″-tricyclo-[3.3.1.1^3,7]-decan]-4-yl) methanone p-tosylate]

SMILES: COc1ccc(-c2cn(-c3ccccc3)nc2/C=N/N=C/c2c(C)nn(-c3ccccc3)c2Cl)cc1 [3i]
IC50 [1]: 0.74 ± 0.1 µM

SMILES: NCC1CCC2(CC1)OOC1(O2)C2CC3CC(C2)CC1C3 (stereo not shown) [LC95]
IC50 [2]: 9.35 ± 3.64 µM

SMILES: O=C1CCC2(CC1)OOC1(OO2)C2CC3CC(C2)CC1C3 [LC140]
IC50 [3]: 2.52 ± 0.65 µM

Solubility in M199 and RPMI medium [4]: low solubility | IC50 [5]: > 400 µM | IC50 [7]: > 400 µM
SMILES: Nc1ccnn1C(=O)C1CCC2(CC1)OOC1(OO2)C2CC3CC(C2)CC1C3 (stereo not shown) [T1, (5-Amino-1H-pyrazol-1-yl)(dispiro[cyclohexane-1,3′-[1,2,4,5]tetraoxane-6′,2″-tricyclo-[3.3.1.1^3,7]-decan]-4-yl)methanone]
CC50 [6]: > 800 µM

Solubility in M199 and RPMI medium [4]: low solubility
SMILES: Nc1ccn(C(=O)C2CCC3(CC2)OOC2(OO3)C3CC4CC(C3)CC2C4)n1 (stereo not shown) [T2, (3-Amino-1H-pyrazol-1-yl)(dispiro[cyclohexane-1,3′-[1,2,4,5]tetraoxane-6′,2″-tricyclo[3.3.1.1^3,7]decan]-4-yl)methanone]
CC50 at 48 h [8]: > 800 µM
